Test results published in ChEMBL document CHEMBL3046815, “Evaluation of fungicides for the management of Botryosphaeria dieback diseases of grapevines” (Pest Manag Sci, 2012).

Experiments:
Neofusicoccum luteum [1] = assay: Fungicidal activity against Neofusicoccum luteum infected Pinot noir grapevine assessed as pathogen incidence at 50 g AI /100 L applied 24 hr prior inoculation to pruning wound measured after 3 months; assay type: functional
Neofusicoccum luteum [2] = assay: Fungicidal activity against Neofusicoccum luteum infected Pinot noir grapevine assessed as dieback lesion length at 50 g AI /100 L applied 24 hr prior inoculation to pruning wound measured after 3 months; assay type: functional
Diplodia mutila [3] = assay: Fungicidal activity against Diplodia mutila Q assessed as conidial germination inhibition after 48 hr; assay type: functional, organism-based; settings: pooled result: one value given for 3 cell lines, strains, targets or settings
Neofusicoccum luteum [4] = assay: Fungicidal activity against Neofusicoccum luteum infected Pinot noir grapevine assessed as non-lesion areas compound applied 24 hr prior inoculation to pruning wound measured after 1 year; assay type: functional; set-up: concentration or dose not given beside the values
Neofusicoccum luteum [5] = assay: Fungicidal activity against Neofusicoccum luteum infected Pinot noir grapevine assessed as pathogen incidence at dieback edges compound applied 24 hr prior inoculation to pruning wound measured after 1 year; assay type: functional; set-up: concentration or dose not given beside the values
Neofusicoccum luteum [6] = assay: Fungicidal activity against Neofusicoccum luteum infected Pinot noir grapevine assessed as pathogen incidence at dieback sites compound applied 24 hr prior inoculation to pruning wound measured after 1 year; assay type: functional; set-up: concentration or dose not given beside the values
Neofusicoccum luteum [7] = assay: Fungicidal activity against Neofusicoccum luteum N(12)2 assessed as conidial germination inhibition after 48 hr; assay type: functional, organism-based; settings: pooled result: one value given for 3 cell lines, strains, targets or settings
Neofusicoccum australe [8] = assay: Fungicidal activity against Neofusicoccum australe J-3 assessed as conidial germination inhibition after 48 hr; assay type: functional, organism-based; settings: pooled result: one value given for 3 cell lines, strains, targets or settings
Neofusicoccum luteum [9] = assay: Fungicidal activity against Neofusicoccum luteum N(12)2 assessed as mycelial growth inhibition after 48 hr; assay type: functional, organism-based; settings: pooled result: one value given for 3 cell lines, strains, targets or settings
Neofusicoccum australe [10] = assay: Fungicidal activity against Neofusicoccum australe J-3 assessed as mycelial growth inhibition after 48 hr; assay type: functional, organism-based; settings: pooled result: one value given for 3 cell lines, strains, targets or settings
Diplodia mutila [11] = assay: Fungicidal activity against Diplodia mutila Q assessed as mycelial growth inhibition after 48 hr; assay type: functional, organism-based; settings: pooled result: one value given for 3 cell lines, strains, targets or settings
Neofusicoccum luteum [12] = assay: Fungicidal activity against Neofusicoccum luteum infected Pinot noir grapevine assessed as mean pathogen compound applied 24 hr prior inoculation to pruning wound measured after 1 year; assay type: functional; set-up: concentration or dose not given beside the values
Neofusicoccum luteum [13] = assay: Fungicidal activity against Neofusicoccum luteum infected Pinot noir grapevine assessed as pathogen incidence at area beyond node compound applied 24 hr prior inoculation to pruning wound measured after 1 year; assay type: functional; set-up: concentration or dose not given beside the values
Neofusicoccum luteum [14] = assay: Fungicidal activity against Neofusicoccum luteum infected Pinot noir grapevine assessed as pathogen incidence at closest side shoot compound applied 24 hr prior inoculation to pruning wound measured after 6 months; assay type: functional; set-up: concentration or dose not given beside the values
Neofusicoccum luteum [15] = assay: Fungicidal activity against Neofusicoccum luteum infected Pinot noir grapevine assessed as pathogen incidence at 32 g AI /100 L applied 24 hr prior inoculation to pruning wound measured after 3 months; assay type: functional
Neofusicoccum luteum [16] = assay: Fungicidal activity against Neofusicoccum luteum infected Pinot noir grapevine assessed as dieback lesion length at 32 g AI /100 L applied 24 hr prior inoculation to pruning wound measured after 3 months; assay type: functional
Neofusicoccum luteum [17] = assay: Fungicidal activity against Neofusicoccum luteum infected Pinot noir grapevine assessed as dieback lesion length at 2.5 g AI /100 L applied 24 hr prior inoculation to pruning wound measured after 3 months; assay type: functional
Neofusicoccum luteum [18] = assay: Fungicidal activity against Neofusicoccum luteum infected Pinot noir grapevine assessed as pathogen incidence at 2.5 g AI /100 L applied 24 hr prior inoculation to pruning wound measured after 3 months; assay type: functional
Neofusicoccum luteum [19] = assay: Fungicidal activity against Neofusicoccum luteum infected Pinot noir grapevine assessed as dieback lesion length at 45 g AI /100 L applied 24 hr prior inoculation to pruning wound measured after 3 months; assay type: functional
Neofusicoccum luteum [20] = assay: Fungicidal activity against Neofusicoccum luteum infected Pinot noir grapevine assessed as pathogen incidence at 45 g AI /100 L applied 24 hr prior inoculation to pruning wound measured after 3 months; assay type: functional
Neofusicoccum luteum [21] = assay: Fungicidal activity against Neofusicoccum luteum infected Pinot noir grapevine assessed as pathogen incidence at 39 g AI /100 L applied 24 hr prior inoculation to pruning wound measured after 3 months; assay type: functional
Neofusicoccum luteum [22] = assay: Fungicidal activity against Neofusicoccum luteum infected Pinot noir grapevine assessed as dieback lesion length at 39 g AI /100 L applied 24 hr prior inoculation to pruning wound measured after 3 months; assay type: functional
Neofusicoccum luteum [23] = assay: Fungicidal activity against Neofusicoccum luteum infected Pinot noir grapevine assessed as pathogen incidence at 80 g AI /100 L applied 24 hr prior inoculation to pruning wound measured after 3 months; assay type: functional, organism-based
Neofusicoccum luteum [24] = assay: Fungicidal activity against Neofusicoccum luteum infected Pinot noir grapevine assessed as dieback lesion length at 80 g AI /100 L applied 24 hr prior inoculation to pruning wound measured after 3 months; assay type: functional, organism-based
Neofusicoccum luteum [25] = assay: Fungicidal activity against Neofusicoccum luteum infected Pinot noir grapevine assessed as pathogen incidence at 25 g AI /100 L applied 24 hr prior inoculation to pruning wound measured after 3 months; assay type: functional
Neofusicoccum luteum [26] = assay: Fungicidal activity against Neofusicoccum luteum infected Pinot noir grapevine assessed as dieback lesion length at 25 g AI /100 L applied 24 hr prior inoculation to pruning wound measured after 3 months; assay type: functional
Neofusicoccum luteum [27] = assay: Fungicidal activity against Neofusicoccum luteum infected Pinot noir grapevine assessed as dieback lesion length at 40 g AI /100 L applied 24 hr prior inoculation to pruning wound measured after 3 months; assay type: functional
Neofusicoccum luteum [28] = assay: Fungicidal activity against Neofusicoccum luteum infected Pinot noir grapevine assessed as pathogen incidence at 40 g AI /100 L applied 24 hr prior inoculation to pruning wound measured after 3 months; assay type: functional
Neofusicoccum luteum [29] = assay: Fungicidal activity against Neofusicoccum luteum infected Pinot noir grapevine assessed as dieback lesion length at 210 g AI /100 L applied 24 hr prior inoculation to pruning wound measured after 3 months; assay type: functional
Neofusicoccum luteum [30] = assay: Fungicidal activity against Neofusicoccum luteum infected Pinot noir grapevine assessed as pathogen incidence at 210 g AI /100 L applied 24 hr prior inoculation to pruning wound measured after 3 months; assay type: functional
Neofusicoccum luteum [31] = assay: Fungicidal activity against Neofusicoccum luteum infected Pinot noir grapevine assessed as pathogen incidence at 55 g AI /100 L applied 24 hr prior inoculation to pruning wound measured after 3 months; assay type: functional
Neofusicoccum luteum [32] = assay: Fungicidal activity against Neofusicoccum luteum infected Pinot noir grapevine assessed as dieback lesion length at 55 g AI /100 L applied 24 hr prior inoculation to pruning wound measured after 3 months; assay type: functional
Neofusicoccum luteum [33] = assay: Fungicidal activity against Neofusicoccum luteum infected Pinot noir grapevine assessed as pathogen incidence at 4 g AI /100 L applied 24 hr prior inoculation to pruning wound measured after 3 months; assay type: functional
Neofusicoccum luteum [34] = assay: Fungicidal activity against Neofusicoccum luteum infected Pinot noir grapevine assessed as dieback lesion length at 4 g AI /100 L applied 24 hr prior inoculation to pruning wound measured after 3 months; assay type: functional

| Compound | EC50 (Diplodia mutila [3]) [mgAi/L] | Activity (Neofusicoccum luteum [4]) [%] | Activity (Neofusicoccum luteum [5]) [%] | Activity (Neofusicoccum luteum [6]) [%] | EC50 (Neofusicoccum luteum [7]) [mgAi/L] | EC50 (Neofusicoccum australe [8]) [mgAi/L] | EC50 (Neofusicoccum luteum [9]) [mgAi/L] | EC50 (Neofusicoccum australe [10]) [mgAi/L] | EC50 (Diplodia mutila [11]) [mgAi/L] | Activity (Neofusicoccum luteum [12]) [%] | Activity (Neofusicoccum luteum [13]) [%] | Activity (Neofusicoccum luteum [14]) [%] | further results |
| --- | --- | --- | --- | --- | --- | --- | --- | --- | --- | --- | --- | --- | --- |
| CC(C)NC(=O)N1CC(=O)N(c2cc(Cl)cc(Cl)c2)C1=O [IPRODIONE] | 0.03 | 30 | 53 | 83 | 0.04 | 0.05 | 0.314 | 0.273 | 0.247 | 34 | 0 | 3 | Activity (Neofusicoccum luteum [1]): 0%; Activity (Neofusicoccum luteum [2]): 39.9 mm |
| CC(C)(C)C(O)(CCc1ccc(Cl)cc1)Cn1cncn1 (stereo unspecified) [TEBUCONAZOLE] | 0.6 | 13 | 27 | 37 | 6.23 | 3.38 | 0.076 | 0.098 | 0.01 | 16 | 0 | 3 | Activity (Neofusicoccum luteum [15]): 20%; Activity (Neofusicoccum luteum [16]): 50.2 mm |
| O=CNC(N1CCN(C(NC=O)C(Cl)(Cl)Cl)CC1)C(Cl)(Cl)Cl (stereo unspecified) [TRIFORINE] | 49.59 | – | – | – | 159.9 | 126.3 | 23.73 | 28.139 | 0.039 | – | – | – | – |
| OC(c1ccc(Cl)cc1)(c1cncnc1)c1ccccc1Cl (stereo unspecified) [FENARIMOL] | 0.48 | 20 | 40 | 77 | 7.44 | 22.5 | 0.399 | 0.58 | 0.076 | 27 | 0 | 0 | Activity (Neofusicoccum luteum [17]): 52.8 mm; Activity (Neofusicoccum luteum [18]): 20% |
| CCCN(CCOc1c(Cl)cc(Cl)cc1Cl)C(=O)n1ccnc1 [PROCHLORAZ] | 22.97 | 40 | 67 | 97 | 46.86 | 13.23 | 0.054 | 0.098 | 0.001 | 43 | 0 | 13 | Activity (Neofusicoccum luteum [19]): 60.5 mm; Activity (Neofusicoccum luteum [20]): 70% |
| N#Cc1sc2c(=O)c3ccccc3c(=O)c=2sc1C#N [DITHIANON] | 11.39 | – | – | – | 19.11 | 19.1 | 73.41 | 58.897 | 44.87 | – | – | – | Activity (Neofusicoccum luteum [21]): 30%; Activity (Neofusicoccum luteum [22]): 49.6 mm |
| COPPER HYDROXIDE [listing 1 of 2 here] | – | – | – | – | – | – | – | – | – | – | – | – | Activity (Neofusicoccum luteum [23]): 20%; Activity (Neofusicoccum luteum [24]): 41.9 mm |
| COC(=O)Nc1nc2ccccc2[nH]1 [CARBENDAZIM] | 0.01 | 7 | 10 | 27 | 0.04 | 0.01 | 0.061 | 0.023 | – | 9 | 0 | 3 | Activity (Neofusicoccum luteum [25]): 0%; Activity (Neofusicoccum luteum [26]): 33.2 mm |
| COC(=O)NC(=S)Nc1ccccc1NC(=S)NC(=O)OC [THIOPHANATE METHYL] | 0.29 | 17 | 33 | 47 | 2.41 | 5.09 | 1.237 | 1.079 | 0.485 | 20 | 0 | 3 | Activity (Neofusicoccum luteum [27]): 53.3 mm; Activity (Neofusicoccum luteum [28]): 30% |
| COCC(=O)N(c1c(C)cccc1C)C(C)C(=O)OC (stereo unspecified) [METALAXYL] | 45.72 | – | – | – | 218.01 | 113.11 | 188 | 102.6 | 61.995 | – | – | – | – |
| N#Cc1c(Cl)c(Cl)c(Cl)c(C#N)c1Cl [CHLOROTHALONIL] | 1.35 | – | – | – | 11.15 | 10.79 | 7.873 | 3.847 | 0.258 | – | – | – | Activity (Neofusicoccum luteum [29]): 51.9 mm; Activity (Neofusicoccum luteum [30]): 30% |
| COPPER HYDROXIDE [listing 2 of 2 here] | 4.16 | – | – | – | 8.7 | 5.68 | 77.437 | 106.83 | 68.64 | – | – | – | – |
| CC12CC1(C)C(=O)N(c1cc(Cl)cc(Cl)c1)C2=O (stereo unspecified) [PROCYMIDONE] | – | 20 | 40 | 70 | 0.02 | 0.01 | 0.183 | 0.23 | 0.227 | 27 | 0 | 7 | Activity (Neofusicoccum luteum [31]): 20%; Activity (Neofusicoccum luteum [32]): 47.8 mm |
| C[Si](Cn1cncn1)(c1ccc(F)cc1)c1ccc(F)cc1 [FLUSILAZOLE] | 0.56 | 0 | 0 | 0 | 1.23 | 1.34 | 0.003 | 0.002 | 0.001 | 0 | 0 | 0 | Activity (Neofusicoccum luteum [33]): 0%; Activity (Neofusicoccum luteum [34]): 41.4 mm |
